Where two headings read alike, the source gives them in different places.
Experiments:
[1] = tested on: HCT-116 cell line; experiment: MTT anti-proliferative assay, HCT-116; type: cell-based; settings: Homo sapiens, 48 h, three independent experiments, read-out: In vitro cytotoxicity IC50, HCT-116
Procedure: (§1) In vitro antiproliferative activities of the target molecules were assessed against two human cancer cell lines namely, hepatocellular carcinoma (HepG2) and colorectal carcinoma (HCT-116) using MTT assay.
(§2) The anti-proliferative activity of the synthesized compounds was assessed using MTT assay protocol. A panel of human cancer cell lines namely, colorectal carcinoma (HCT-116) and hepatocellular carcinoma (HepG2) was used in this test. Doxorubicin was used as a positive control. The cell lines were got from ATCC (American Type Culture Collection) via the Holding company for biological products and vaccines (VACSERA, Cairo, Egypt). The anti-proliferative activities of the tested compounds were determined quantitatively as follows:
(§3) At first, the cells were cultured into a medium of RPMI-1640 with 10% fetal bovine serum. Then, two different antibiotics were added at 37°C in a 5% CO2 incubator: penicillin (100 units/mL) and streptomycin (100 μg/mL). Next, we seeded the cells in a 96-well plate by a density of 1.0 x 10^4 cells / well at 37°C for 48 h under 5% CO2. The synthesized compounds with different concentrations were applied into the cell lines and incubated for 48 h. After 48 h, 20 μl of MTT solution (5mg/mL) was added and incubated for 4 h. Then, DMSO (100 μl) was added into each well to dissolve the formed purple formazan. After that, a colorimetric assay was measured and recorded at absorbance of 570 nm using a plate reader (EXL 800, USA). The relative cell viability in percentage was calculated as (A570 of treated samples/A570 of untreated sample) X 100.
(§4) S2: Biological evaluation
(§5) S2.1. In vitro cytotoxic activity
(§6) The anti-proliferative activity of the synthesized compounds was assessed using MTT assay protocol. A panel of human cancer cell lines namely, colorectal carcinoma (HCT-116) and hepatocellular carcinoma (HepG2) was used in this test. As we targeted the DNA and Topo […]
(§7) cell lines were got from ATCC (American Type Culture Collection) via the Holding company for biological products and vaccines (VACSERA, Cairo, Egypt). The anti -proliferative activities of the tested compounds were determined quantitatively as follows:
(§8) At first, the cells were cultured into a medium of RPMI-1640 with 10% fetal bovine serum.
(§9) Then, two different antibiotics were added at 37 ᵒC in a 5% CO2 incubator: penicillin (100 units/mL) and streptomycin (100 µg/mL). Next, we seeded the cells in a 96 -well plate by a density of 1.0 x 10^4 cells / well at 37 ᵒC for 48 h under 5% CO2. The synthesized compounds with different concentrations were applied into the cell lines and incubated for 48 h. After 48 h, 20 µl of MTT solution (5mg/mL) was added and incubated for 4 h. Then, DMSO (100 µl) was added into each well to dissolve the formed purple formazan. After that, a colorimetric assay was measured and recorded at absorbance of 570 nm using a plate reader (EXL 800, USA). The relative cell viability in percentage was calculated as (A570 of treated samples/A570 of untreated sample) X 100. […]

[2] = tested on: HepG2 cell line; experiment: MTT anti-proliferative assay, HepG2; type: cell-based; settings: Homo sapiens, 48 h, three independent experiments, read-out: In vitro cytotoxicity IC50, HepG2
Procedure: as §1, §2, §3, §4, §5, §6, §7, §8, §9

[3] = tested on: Activated Calf Thymus DNA; experiment: DNA/methyl green assay (DNA intercalation); type: binding; settings: for LogIC50 (best-fit value, DNA/Topo-II Inhibition (%) curve): log of drug concentration in uM
Procedure: The most promising members (13a, 14a, 16, 17, 18, 19, and 20) were further investigated for their binding affinity against DNA. […] The results of DNA-binding affinities were reported in Table 1 as IC50 values calculated from the concentration-inhibition response curve.
Activated Calf Thymus DNA (Merk, Germany) was treated with methyl green (Merk, Germany), then the synthesized compounds were applied to displace the methyl green dye, producing equivalent color.
(§10) After that, the DNA was run on 1% agarose gel in BioRad gel electrophoresis system for 1–2 h followed by staining with GelRedTM stain for 2 h and destained for 15 min with TAE buffer. The gel was imaged via BioRad’s Gel DocTMEZ system. Both supercoiled and linear strands DNA were incorporated in the gel as markers for DNA-Topo II intercalators. The results of IC50 values were calculated using the GraphPad Prism version 7. Each reaction was performed in duplicate, and at least three independent determinations of each IC50 were made.
S2.3. DNA/Methyl Green Assay […]
methyl green dye method described by Burres et al. Activated Calf Thymus DNA (Merk, Germany) was treated with methyl green (Merk, Germany), then the synthesized compounds were applied to displace the methyl green dye, producing equivalent color. […]

[4] = biological target: T1, Topoisomerase II (Topo II) (Homo sapiens, UniProt P11388); experiment: In vitro Topo II inhibitory assay (TopoGEN Topo II drug screening kit); type: biochemical
T1 construct: purchased TopoGEN, Inc., Columbus
T1 sequence (P11388 whole entry): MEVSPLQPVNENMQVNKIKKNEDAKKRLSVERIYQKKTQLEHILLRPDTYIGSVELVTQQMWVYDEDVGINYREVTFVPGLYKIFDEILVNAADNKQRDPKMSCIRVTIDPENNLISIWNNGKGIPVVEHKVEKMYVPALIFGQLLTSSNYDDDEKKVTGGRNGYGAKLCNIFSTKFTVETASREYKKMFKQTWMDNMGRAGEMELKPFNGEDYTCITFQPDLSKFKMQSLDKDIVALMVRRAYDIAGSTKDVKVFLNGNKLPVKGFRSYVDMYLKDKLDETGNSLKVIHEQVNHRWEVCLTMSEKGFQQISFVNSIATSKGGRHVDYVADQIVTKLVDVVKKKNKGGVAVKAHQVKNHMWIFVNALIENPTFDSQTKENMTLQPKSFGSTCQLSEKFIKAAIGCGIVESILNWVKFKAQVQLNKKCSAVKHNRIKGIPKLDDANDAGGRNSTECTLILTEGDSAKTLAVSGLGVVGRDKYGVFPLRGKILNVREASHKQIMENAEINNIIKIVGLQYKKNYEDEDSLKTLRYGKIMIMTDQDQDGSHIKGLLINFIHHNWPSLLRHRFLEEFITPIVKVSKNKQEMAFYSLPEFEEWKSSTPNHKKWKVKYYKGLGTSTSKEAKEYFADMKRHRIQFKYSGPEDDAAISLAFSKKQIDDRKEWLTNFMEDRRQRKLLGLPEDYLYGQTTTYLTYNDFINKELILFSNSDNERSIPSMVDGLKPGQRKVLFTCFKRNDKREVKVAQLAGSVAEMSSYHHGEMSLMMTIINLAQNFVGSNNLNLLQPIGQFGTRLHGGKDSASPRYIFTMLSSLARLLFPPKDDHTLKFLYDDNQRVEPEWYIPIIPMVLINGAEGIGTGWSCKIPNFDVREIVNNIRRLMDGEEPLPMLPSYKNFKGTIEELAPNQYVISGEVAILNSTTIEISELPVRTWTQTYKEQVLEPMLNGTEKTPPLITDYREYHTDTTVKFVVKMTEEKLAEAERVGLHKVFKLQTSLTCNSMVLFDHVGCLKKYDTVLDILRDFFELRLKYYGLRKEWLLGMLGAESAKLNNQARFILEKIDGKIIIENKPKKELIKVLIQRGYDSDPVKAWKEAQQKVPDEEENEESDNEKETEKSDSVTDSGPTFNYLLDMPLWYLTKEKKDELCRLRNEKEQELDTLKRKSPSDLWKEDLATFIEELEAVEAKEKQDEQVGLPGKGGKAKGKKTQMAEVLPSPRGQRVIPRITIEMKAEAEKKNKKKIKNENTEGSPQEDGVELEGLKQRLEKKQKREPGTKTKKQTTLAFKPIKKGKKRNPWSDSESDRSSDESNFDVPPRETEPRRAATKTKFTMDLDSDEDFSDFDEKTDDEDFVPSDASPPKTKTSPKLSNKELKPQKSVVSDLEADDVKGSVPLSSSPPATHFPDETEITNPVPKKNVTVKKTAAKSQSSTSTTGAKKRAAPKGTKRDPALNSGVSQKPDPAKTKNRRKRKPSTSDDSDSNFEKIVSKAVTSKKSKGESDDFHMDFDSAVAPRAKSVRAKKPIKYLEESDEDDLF
Procedure: The reported method described by Patra et al was applied using Topo II drug screening kit (TopoGEN, Inc., Columbus).
A typical enzyme reaction was structured to determine Topo II activity. The reaction mixture included Topo II (2 μl), substrate super coiled pHot1 DNA (0.25 μg), 50 μg/ml test compound (2 μl), and assay buffer (4 μl). To start the reaction, the mixture was allowed to incubate in 37°C for 30 min. To terminate the reaction, a mixture of 10% sodium dodecylsulphate (2 μl) and proteinase K (50 μg/mL) was added at 37°C for 15 min. then incubated for 15 min at 37°C.
as §10, with “made. […]” for “made.”
S2.2. Measurement of topoisomerase II Activity […]
analyzed for their Topo II inhibitory activities. The reported method described by Patra et al was applied using Topo II drug screening kit (TopoGEN, Inc., Columbus).
A typical enzyme reaction was structured to determine Topo II activity. The reaction mixture included Topo II (2 µl), substrate super coiled pHot1 DNA (0.25 µg), 50 µg/ml test compound (2 µl), and assay buffer (4 µl). To start the reaction, the mixture was allowed to incubate in 37 °C for 30 min. To terminate the reaction, a mixture of 10% sodium dodecylsulphate (2 µl) and proteinase K (50 µg/mL) was added at 37 °C for 15 min. then incubated for 15 min at 37 °C.
as §10, with “made. […]” for “made.”

[5] = tested on: Activated Calf Thymus DNA; design: method as in PMID 32882440; settings: previous work of the authors; read-out: DNA/Methyl green (IC50); cited from earlier work
[6] = biological target: T1, Topoisomerase II (Topo II); design: method as in PMID 32882440; settings: previous work of the authors; cited from earlier work
[7] = tested on: HCT-116 cell line; design: method as in PMID 32882440; settings: previous work of the authors; read-out: In vitro cytotoxicity IC50, HCT-116; cited from earlier work
[8] = tested on: HepG2 cell line; design: method as in PMID 32882440; settings: previous work of the authors; read-out: In vitro cytotoxicity IC50, HepG2; cited from earlier work
[9] = 50% inhibition concentration of DNA/methyl green assay, read-out: DNA/Methyl green (IC50)

For CCCNc1nc2ccccc2c2nnc(-c3ccc(C)cc3)n12 [Compound 11a, N-Propyl-3-(p-tolyl)-[1,2,4]triazolo[4,3-c]quinazolin-5-amine], the IC50 [1] was 8.42 ± 0.3 µM and the IC50 [2] was 15.5 ± 1 µM.

With CCCNc1nc2ccccc2c2nnc(-c3ccc(Cl)cc3)n12 [Compound 11b, 3-(4-Chlorophenyl)-N-propyl-[1,2,4]triazolo[4,3-c]quinazolin-5-amine] the IC50 [1] was 25 ± 0.9 µM and the IC50 [2] was 29.9 ± 1.3 µM.

For Cc1ccc(-c2nnc3c4ccccc4nc(NCCO)n23)cc1 [Compound 12a, 2-((3-(p-Tolyl)-[1,2,4]triazolo[4,3-c]quinazolin-5-yl)amino)ethan-1-ol], the IC50 [1] was 11.9 ± 0.3 µM and the IC50 [2] was 18.8 ± 1.2 µM.

With OCCNc1nc2ccccc2c2nnc(-c3ccc(Cl)cc3)n12 [Compound 12b, 2-((3-(4-Chlorophenyl)-[1,2,4]triazolo[4,3-c]quinazolin-5-yl)amino)ethan-1-ol] the IC50 [1] was 7.03 ± 0.2 µM and the IC50 [2] was 17.8 ± 0.9 µM.

In the case of Cc1ccc(-c2nnc3c4ccccc4nc(N(C)C)n23)cc1 [Compound 13a, N,N-Dimethyl-3-(p-tolyl)-[1,2,4]triazolo[4,3-c]quinazolin-5-amine], the IC50 [1] is reported as 11.6 ± 0.5 µM, the IC50 [3, 9] is reported as 52.9 ± 1.6 µM and the “LogIC50 (best-fit value, DNA/Topo-II Inhibition (%) curve)” value ([3]; supplement curve fit) is reported as 1.723. The “HillSlope (best-fit value, DNA/Topo-II Inhibition (%) curve)” value ([3]; supplement curve fit) was 0.4587, the IC50 [4] was 36.1 ± 1.9 µM and the IC50 [2] was 10.7 ± 0.6 µM.

Molecule CN(C)c1nc2ccccc2c2nnc(-c3ccc(Cl)cc3)n12 [Compound 13b, 3-(4-Chlorophenyl)-N,N-dimethyl-[1,2,4]triazolo[4,3-c]quinazolin-5-amine] has an IC50 [1] of 16.9 ± 0.9 µM and an IC50 [2] of 33.1 ± 1.7 µM.

With Cc1ccc(-c2nnc3c4ccccc4nc(NC4CCCCC4)n23)cc1 [Compound 14a, N-Cyclohexyl-3-(p-tolyl)-[1,2,4]triazolo[4,3-c]quinazolin-5-amine] the IC50 [1] was 7.66 ± 0.2 µM, the IC50 [3, 9] was 22.5 ± 0.9 µM and the “LogIC50 (best-fit value, DNA/Topo-II Inhibition (%) curve)” value ([3]; supplement curve fit) was 1.353. For the same molecule, the “HillSlope (best-fit value, DNA/Topo-II Inhibition (%) curve)” value ([3]; supplement curve fit) was 0.4583, the IC50 [4] was 30.4 ± 1.8 µM and the IC50 [2] was 13 ± 0.5 µM.

Molecule Clc1ccc(-c2nnc3c4ccccc4nc(NC4CCCCC4)n23)cc1 [Compound 14b, 3-(4-Chlorophenyl)-N-cyclohexyl-[1,2,4]triazolo[4,3-c]quinazolin-5-amine] has an IC50 [1] of 17.4 ± 0.4 µM and an IC50 [2] of 29.5 ± 1.2 µM.

Cc1ccc(-c2nnc3c4ccccc4nc(N4CCOCC4)n23)cc1 [Compound 15a, 4-(3-(p-Tolyl)-[1,2,4]triazolo[4,3-c]quinazolin-5-yl)morpholine] showed an IC50 [1] of 20 ± 0.4 µM and an IC50 [2] of 20.4 ± 0.9 µM.

Molecule Clc1ccc(-c2nnc3c4ccccc4nc(N4CCOCC4)n23)cc1 [Compound 15b, 4-(3-(4-Chlorophenyl)-[1,2,4]triazolo[4,3-c]quinazolin-5-yl)morpholine] has an IC50 [1] of 21 ± 0.3 µM and an IC50 [2] of 23.4 ± 0.9 µM.

For OCCNc1nc2ccccc2c2nnc(C(F)(F)F)n12 [Compound 17, 2-((3-(Trifluoromethyl)-[1,2,4]triazolo[4,3-c]quinazolin-5-yl)amino)ethan-1-ol], the IC50 [1] was 2.78 ± 0.1 µM, the IC50 [3, 9] was 11.1 ± 0.7 µM and the “LogIC50 (best-fit value, DNA/Topo-II Inhibition (%) curve)” value ([3]; supplement curve fit) was 1.045. For the same molecule, the “HillSlope (best-fit value, DNA/Topo-II Inhibition (%) curve)” value ([3]; supplement curve fit) was 0.4423, the IC50 [4] was 17.7 ± 0.8 µM and the IC50 [2] was 5.65 ± 0.1 µM.

With CN(C)c1nc2ccccc2c2nnc(C(F)(F)F)n12 [Compound 18, N,N-Dimethyl-3-(trifluoromethyl)-[1,2,4]triazolo[4,3-c]quinazolin-5-amine] the IC50 [1] was 4.17 ± 0.1 µM, the IC50 [3, 9] was 12.5 ± 0.6 µM and the “LogIC50 (best-fit value, DNA/Topo-II Inhibition (%) curve)” value ([3]; supplement curve fit) was 1.098. The “HillSlope (best-fit value, DNA/Topo-II Inhibition (%) curve)” value ([3]; supplement curve fit) was 0.3961, the IC50 [4] was 18.3 ± 0.8 µM and the IC50 [2] was 6.82 ± 0.2 µM.

In the case of FC(F)(F)c1nnc2c3ccccc3nc(NC3CCCCC3)n12 [Compound 19, N-Cyclohexyl-3-(trifluoromethyl)-[1,2,4]triazolo[4,3-c]quinazolin-5-amine], the IC50 [1] is reported as 9.43 ± 0.3 µM, the IC50 [3, 9] is reported as 23.6 ± 1.3 µM and the “LogIC50 (best-fit value, DNA/Topo-II Inhibition (%) curve)” value ([3]; supplement curve fit) is reported as 1.373. For the same molecule, the “HillSlope (best-fit value, DNA/Topo-II Inhibition (%) curve)” value ([3]; supplement curve fit) was 0.3612, the IC50 [4] was 18.7 ± 0.9 µM and the IC50 [2] was 8.91 ± 0.2 µM.

With FC(F)(F)c1nnc2c3ccccc3nc(N3CCOCC3)n12 [Compound 20, 4-(3-(Trifluoromethyl)-[1,2,4]triazolo[4,3-c]quinazolin-5-yl)morpholine] the IC50 [1] was 4.61 ± 0.2 µM, the IC50 [3, 9] was 34.5 ± 1.2 µM and the “LogIC50 (best-fit value, DNA/Topo-II Inhibition (%) curve)” value ([3]; supplement curve fit) was 1.538. For the same molecule, the “HillSlope (best-fit value, DNA/Topo-II Inhibition (%) curve)” value ([3]; supplement curve fit) was 0.3425, the IC50 [4] was 20.6 ± 0.9 µM and the IC50 [2] was 8.34 ± 0.3 µM.

In the case of COc1cccc2c1C(=O)c1c(O)c3c(c(O)c1C2=O)C[C@@](O)(C(=O)CO)C[C@@H]3O[C@H]1C[C@H](N)[C@H](O)[C@H](C)O1 [Doxorubicin, reference compound], the IC50 [1] is reported as 1.87 ± 0.1 µM, the IC50 [3, 9] is reported as 5.64 ± 0.1 µM and the “HillSlope (best-fit value, DNA/Topo-II Inhibition (%) curve)” value ([3]; supplement curve fit) is reported as 0.3659. For the same molecule, the IC50 ([3]; supplement curve fit, read-out: IC50 (best-fit value, DNA/Topo-II Inhibition (%) curve)) was 5.64 µM and the IC50 [2] was 3.8 ± 0.1 µM.

For O=C(CSc1nnc2c3ccccc3c(=O)n(CC(=O)Nc3ccc(C(=O)O)cc3)n12)Nc1ccc(C(=O)O)cc1 [VIIa], the IC50 [5] is given as 48.3 ± 2.3 µM, the IC50 [6] is given as 7.45 ± 0.44 µM and the IC50 [7] is given as 2620 ± 100 nM. For the same molecule, the IC50 [8] was 3.91 ± 0.15 µM.
